The subject of one series is other PDE isoforms. To be noted: reported in Brandon et al. 2007; cited from earlier work.
The conditions of series [1]: reported in Brandon et al. 2007; cited from earlier work.
Another series has as its target Rhesus PDE2A3 (Macaca mulatta, UniProt B3VTJ2). Nature of the series: PDE2 fluorescence polarization (IMAP FP) assay, rhesus PDE2A3. It counts as biochemical, rhesus macaque. For orientation: Fluorescence polarisation rises when a labelled molecule tumbles more slowly, as on binding a larger partner.
The next series deals with human PDE2A1 (Homo sapiens (Human), UniProt O00408). Nature of the series: PDE selectivity IMAP FP assay, human PDE2A1. In kind it is biochemical. To be noted: Human PDE2. The gist of the method: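 IMAP fluorescence polarization assay; PDE2 substrate 50 nM FAM-cAMP containing 1000 nM cGMP, enzyme diluted for 20% substrate conversion, in 10 mM Tris HCl pH 7.2, 10 mM MgCl2, 1 mM DTT. Reaction 60 min at room temperature, stopped with IMAP binding solution; polarization read after 1 h. Ki reported.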
Chain of human PDE2A1 (O00408 other isoform, or with tags, fused parts or gaps): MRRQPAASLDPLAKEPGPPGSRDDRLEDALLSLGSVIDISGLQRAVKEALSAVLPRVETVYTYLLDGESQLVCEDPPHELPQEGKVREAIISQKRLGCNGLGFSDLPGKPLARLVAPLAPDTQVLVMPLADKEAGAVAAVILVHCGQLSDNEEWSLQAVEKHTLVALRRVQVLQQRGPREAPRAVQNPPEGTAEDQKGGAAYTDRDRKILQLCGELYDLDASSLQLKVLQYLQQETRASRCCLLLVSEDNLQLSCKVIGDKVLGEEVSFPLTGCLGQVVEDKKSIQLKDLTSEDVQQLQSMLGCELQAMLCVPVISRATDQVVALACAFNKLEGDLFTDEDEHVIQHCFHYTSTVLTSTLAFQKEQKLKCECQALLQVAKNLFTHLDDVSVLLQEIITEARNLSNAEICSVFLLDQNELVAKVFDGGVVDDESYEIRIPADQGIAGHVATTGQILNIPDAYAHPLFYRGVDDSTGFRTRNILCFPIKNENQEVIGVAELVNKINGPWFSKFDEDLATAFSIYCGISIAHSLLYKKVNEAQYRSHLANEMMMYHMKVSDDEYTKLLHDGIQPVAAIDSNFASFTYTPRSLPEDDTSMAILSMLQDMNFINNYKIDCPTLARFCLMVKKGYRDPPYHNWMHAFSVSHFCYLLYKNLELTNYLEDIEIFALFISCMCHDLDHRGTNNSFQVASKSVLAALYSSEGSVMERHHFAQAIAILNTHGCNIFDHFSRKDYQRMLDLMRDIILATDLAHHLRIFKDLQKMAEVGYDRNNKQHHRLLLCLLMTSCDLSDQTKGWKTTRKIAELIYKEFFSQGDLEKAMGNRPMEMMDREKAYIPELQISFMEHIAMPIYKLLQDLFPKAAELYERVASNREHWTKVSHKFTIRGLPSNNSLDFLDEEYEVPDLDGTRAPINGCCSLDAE

The mark [2] stands for this setting: Lab A, read-out: Rhesus PDE2 Ki (nM) Lab A.
The mark [3] stands for this setting: Lab B, read-out: Rhesus PDE2 Ki (nM) Lab B.
Where [4] appears, read: Lab A, read-out: Human PDE2 Ki (nM) Lab A.
The mark [5] stands for this setting: Lab B, read-out: Human PDE2 Ki (nM) Lab B.

Results on 25 compounds are retold here after patent US10174037B2, “Dihydropyrazolopyrimidinone compounds as PDE2 inhibitors” (Merck Sharp & Dohme Corp., priority 2015, dated 2019).

SMILES strings stand for the structures. Read-outs that look alike come from different tables or passages of the source.

Chain of Rhesus PDE2A3 (B3VTJ2 1-941): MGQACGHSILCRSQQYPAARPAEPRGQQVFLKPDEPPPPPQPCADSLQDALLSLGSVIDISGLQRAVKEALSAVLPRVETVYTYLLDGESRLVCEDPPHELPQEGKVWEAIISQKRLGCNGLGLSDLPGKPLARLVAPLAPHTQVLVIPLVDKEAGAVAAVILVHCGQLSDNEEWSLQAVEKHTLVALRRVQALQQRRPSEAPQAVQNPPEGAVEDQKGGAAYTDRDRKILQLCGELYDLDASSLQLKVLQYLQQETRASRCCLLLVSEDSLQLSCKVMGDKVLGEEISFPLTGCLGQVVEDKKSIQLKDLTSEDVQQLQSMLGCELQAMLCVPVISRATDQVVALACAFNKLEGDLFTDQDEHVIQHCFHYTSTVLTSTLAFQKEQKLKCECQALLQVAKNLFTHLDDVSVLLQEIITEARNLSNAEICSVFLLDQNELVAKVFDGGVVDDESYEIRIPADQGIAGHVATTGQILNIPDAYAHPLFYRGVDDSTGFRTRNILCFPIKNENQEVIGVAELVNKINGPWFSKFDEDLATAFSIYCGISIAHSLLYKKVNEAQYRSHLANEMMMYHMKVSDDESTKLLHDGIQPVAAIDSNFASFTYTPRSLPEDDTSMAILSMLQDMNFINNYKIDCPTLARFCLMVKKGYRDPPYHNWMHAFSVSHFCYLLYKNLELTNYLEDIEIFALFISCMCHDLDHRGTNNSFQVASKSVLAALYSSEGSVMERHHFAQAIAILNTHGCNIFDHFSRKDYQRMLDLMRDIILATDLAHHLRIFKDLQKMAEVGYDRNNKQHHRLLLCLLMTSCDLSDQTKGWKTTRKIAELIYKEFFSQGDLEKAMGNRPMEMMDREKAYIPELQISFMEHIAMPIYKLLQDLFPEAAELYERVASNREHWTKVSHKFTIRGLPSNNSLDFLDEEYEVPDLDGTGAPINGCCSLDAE

Regarding `COc1ccc(Cc2nn3c([C@@H](CCCc4ccccc4)[C@@H](C)O)nc(C)c3c(=O)[nH]2)cc1OC` [BAY 60-7550], the “potency at other PDE isoforms” value in the series with other PDE isoforms is reported as “significant potency”. In addition, the brain penetration result in series [1] is listed as “limited”.

On to `CC(c1ccc(OC(F)(F)F)c(F)c1)n1nc(CF)c2c(=O)[nH]c(O)nc21` (stereo not shown) [Example 38, 1-(1-(3-Fluoro-4-(trifluoromethoxy)phenyl)ethyl)-3-(fluoromethyl)-6-hydroxy-1H-pyrazolo[3,4-d]pyrimidin-4(5H)-one], for which the Ki (as a rule, a measure of affinity in units of concentration, obtained from inhibition or displacement) amounted to 7.2 nM on Rhesus PDE2A3 (setting [2]), 8.3 nM at Rhesus PDE2A3 (setting [3]), 2.8 nM on human PDE2A1 (setting [4]) and 8.5 nM on human PDE2A1 (setting [5]).

For `O=c1[nH]c(O)nc2c1c(CF)nn2C(c1ccc(C(F)(F)F)cc1)C1CC1` (stereo not shown) [Example 39, 1-(Cyclopropyl(4-(trifluoromethyl)phenyl)methyl)-3-(fluoromethyl)-6-hydroxy-1H-pyrazolo[3,4-d]pyrimidin-4(5H)-one], the inhibition constant (Ki) at Rhesus PDE2A3 (setting [2]) amounted to 3.6 nM; on Rhesus PDE2A3 (setting [3]), 5.5 nM; at human PDE2A1 (setting [4]), 2.2 nM; at human PDE2A1 (setting [5]), 6.3 nM.

Regarding `CC(C)C(c1ccc(C(F)(F)F)cc1)n1nc(CF)c2c(=O)[nH]c(O)nc21` (stereo not shown) [Example 40, 3-(Fluoromethyl)-6-hydroxy-1-(2-methyl-1-(4-(trifluoromethyl)phenyl)propyl)-1H-pyrazolo[3,4-d]pyrimidin-4(5H)-one], the Ki on Rhesus PDE2A3 (setting [2]) came out at 1.7 nM; at Rhesus PDE2A3 (setting [3]) it was 2 nM; on human PDE2A1 (setting [4]) it was 0.56 nM; on human PDE2A1 (setting [5]), 2.1 nM.

As for `CC(c1ccc(C(F)(F)F)cc1)n1nc(CF)c2c(=O)[nH]c(O)nc21` (stereo not shown) [Example 41, 3-(Fluoromethyl)-6-hydroxy-1-{1-[4-(trifluoromethyl)phenyl]ethyl}-1,5-dihydro-4H-pyrazolo[3,4-d]pyrimidin-4-one], the Ki came to 3.5 nM at Rhesus PDE2A3 (setting [2]) and 2.3 nM at human PDE2A1 (setting [4]).

As to `O=c1[nH]c(O)nc2c1c(CF)nn2C1(c2ccc(C(F)(F)F)cc2)CCC1` [Example 46, 3-(Fluoromethyl)-6-hydroxy-1-(1-(4-(trifluoromethyl)phenyl)cyclobutyl)-1H-pyrazolo[3,4-d]pyrimidin-4(5H)-one], the inhibition constant (Ki) on Rhesus PDE2A3 (setting [3]) stood at 11 nM; at human PDE2A1 (setting [5]) it was 9.2 nM.

For the compound `C[C@@H](c1ccc(C(C)(C)C)cc1)n1nc(CF)c2c(=O)[nH]c(O)nc21` [Example 47, (S)-1-(1-(4-tert-Butylphenyl)ethyl)-3-(fluoromethyl)-6-hydroxy-1H-pyrazolo[3,4-d]pyrimidin-4(5H)-one], the values for the Ki at Rhesus PDE2A3 (setting [3]) and at human PDE2A1 (setting [5]) were 6.9 nM and 5.1 nM, respectively.

Turning to `O=c1[nH]c(O)nc2c1c(CF)nn2[C@H](c1ccc(C(F)(F)F)c(F)c1)C1CC1` [Example 48, (S)-1-(Cyclopropyl(3-fluoro-4-(lrifluoromethyl)phenyl)methyl)-3-(fluoromethyl)-6-hydroxy-1H-pyrazolo[3,4-d]pyrimidin-4(5H)-one], the inhibitory constant (Ki) on Rhesus PDE2A3 (setting [3]) amounted to 6.2 nM; at human PDE2A1 (setting [5]), 5.6 nM.

With `CC(C)[C@@H](c1ccc(C(C)(C)C)cc1)n1nc(CF)c2c(=O)[nH]c(O)nc21` [Example 49, (S)-1-(1-(4-tert-Bulylphenyl)-2-melhylpropyl)-3-(fluoromethyl)-6-hydroxy-1H-pyrazolo[3,4-d]pyrimidin-4(5H)-one], the Ki at Rhesus PDE2A3 (setting [3]) is 2.5 nM; on human PDE2A1 (setting [5]), 2.3 nM.

In the case of `C[C@@H](c1ccc(S(F)(F)(F)(F)F)cc1)n1nc(CF)c2c(=O)[nH]c(O)nc21` [Example 50, (S)-3-(Fluoromethyl)-6-hydroxy-1-(1-(4-(pentafluorolhio)phenyl)ethyl)-1H-pyrazolo[3,4-d]pyrimidin-4(5H)-one], the inhibition constant Ki on Rhesus PDE2A3 (setting [3]) came to 6.8 nM; on human PDE2A1 (setting [5]) it was 7 nM.

With `Cc1ccc(C(C)n2nc(CCl)c3c(=O)[nH]c(O)nc32)cc1` (stereo not shown) [Example 57, 3-(Chloromethyl)-6-hydroxy-1-(1-p-tolylethyl)-1H-pyrazolo[3,4-d]pyrimidin-4(5H)-one], the Ki at Rhesus PDE2A3 (setting [2]) was 26 nM; at Rhesus PDE2A3 (setting [3]), 40 nM; at human PDE2A1 (setting [4]) it was 11 nM; at human PDE2A1 (setting [5]), 28 nM.

Consider `Cc1nn(C(C)c2ccc(C(F)(F)F)cc2)c2nc(O)[nH]c(=O)c12` (stereo not shown) [Example 58, 6-Hydroxy-3-methyl-1-{1-[4-(trifluoromethyl)phenyl]ethyl}-1,5-dihydro-4H-pyrazolo[3,4-d]pyrimidin-4-one], for which the Ki amounted to 69 nM on Rhesus PDE2A3 (setting [2]) and 49 nM on human PDE2A1 (setting [4]).

For the compound `COc1nc2c(c(C)nn2C(C)c2ccc(C(F)(F)F)cc2)c(=O)[nH]1` (stereo not shown) [Example 59, 6-Methoxy-3-methyl-1-{1-[4-(trifluoromethyl)phenyl]ethyl}-1,5-dihydro-4H-pyrazolo[3,4-d]pyrimidin-4-one], the values for the Ki on Rhesus PDE2A3 (setting [2]) and on human PDE2A1 (setting [4]) were 1140 nM and 760 nM, respectively.

For the compound `Cc1nn(C(C)c2ccc(OC(F)(F)F)cc2)c2nc(O)[nH]c(=O)c12` (stereo not shown) [Example 60, 6-Hydroxy-3-methyl-1-{1-[4-(trifluoromethoxy)phenyl]ethyl}-1,5-dihydro-4H-pyrazolo[3,4-d]pyrimidin-4-one], the values for the Ki at Rhesus PDE2A3 (setting [2]) and on human PDE2A1 (setting [4]) were 278 nM and 207 nM, respectively.

On to `C[C@@H](c1ccc(C(F)(F)F)cc1)n1nc(CO)c2c(=O)[nH]c(N(C)C)nc21` [Example 154, (S)-6-(Dimethylamino)-3-(hydroxymethyl)-1-(1-(4-(trifluoromethyl)phenyl)ethyl)-1H-pyrazolo[3,4-d]pyrimidin-4(5H)-one], for which the results for the inhibitory constant (Ki) at Rhesus PDE2A3 (setting [3]) and at human PDE2A1 (setting [5]) were 0.57 nM and 0.55 nM, respectively.

Turning to `C[C@@H](c1ccc(C(F)(F)F)cc1)n1nc(CO)c2c(=O)[nH]c(N3CCCC3)nc21` [Example 156, 3-(Hydroxymethyl)-6-pyrrolidin-1-yl-1-{(1S)-1-[4-(trifluoromethyl)phenyl]ethyl}-1,5-dihydro-4H-pyrazolo[3,4-d]pyrimidin-4-one], the Ki at Rhesus PDE2A3 (setting [3]) is 0.47 nM; at human PDE2A1 (setting [5]), 0.5 nM.

For `C[C@@H](c1ccc(C(F)(F)F)cc1)n1nc(CO)c2c(=O)[nH]c(N3CC(F)C3)nc21` [Example 161, 6-(3-Fluoroazetidin-1-yl)-3-(hydroxymethyl)-1-{(1S)-1-[4-(trifluoromethyl)phenyl]ethyl}-1,5-dihydro-4H-pyrazolo[3,4-d]pyrimidin-4-one], the figures for the Ki at Rhesus PDE2A3 (setting [3]) and on human PDE2A1 (setting [5]) were 1.9 nM and 1.6 nM, respectively.

`C[C@@H](c1ccc(C(F)(F)F)cc1)n1nc(CF)c2c(=O)[nH]c(N3CCC3)nc21` [Example 225, 6-Azetidin-1-yl-3-(fluoromethyl)-1-{(1S)-1-[4-(trifluoromethyl)phenyl]ethyl}-1,5-dihydro-4H-pyrazolo[3,4-d]pyrimidin-4-one]: the inhibition constant (Ki) on Rhesus PDE2A3 (setting [3]) turned out to be 0.4 nM; on human PDE2A1 (setting [5]), 0.41 nM.

On to `C[C@@H](c1ccc(C(F)(F)F)cc1)n1nc(CF)c2c(=O)[nH]c(N3CCCC3)nc21` [Example 226, 3-(Fluoromethyl)-6-pyrrolidin-1-yl-1-{(1S)-1-[4-(trifluoromethyl)phenyl]ethyl}-1,5-dihydro-4H-pyrazolo[3,4-d]pyrimidin-4-one], for which the Ki on Rhesus PDE2A3 (setting [3]) stood at 0.26 nM; on human PDE2A1 (setting [5]), 0.22 nM.

On to `Cc1nn(C(C)c2ccc(C(F)(F)F)cc2)c2nc(N3CCCC3)[nH]c(=O)c12` (stereo not shown) [Example 268, 3-Methyl-6-pyrrolidin-1-yl-1-{1-[4-(trifluoromethyl)phenyl]ethyl}-1,5-dihydro-4H-pyrazolo[3,4-d]pyrimidin-4-one], for which the Ki worked out at 8 nM at Rhesus PDE2A3 (setting [2]) and 5.6 nM at human PDE2A1 (setting [4]).

Take `CNc1nc2c(c(C)nn2C(C)c2ccc(C(F)(F)F)cc2)c(=O)[nH]1` (stereo not shown) [Example 269, 3-Methyl-6-(methylamino)-1-(1-(4-(trifluoromethyl)phenyl)ethyl)-1,5-dihydro-4H-pyrazolo[3,4-d]pyrimidin-4-one]: the figures for the Ki at Rhesus PDE2A3 (setting [2]) and on human PDE2A1 (setting [4]) were 139 nM and 85 nM, respectively.

For `Cc1nn(C(C)c2ccc(C(F)(F)F)cc2)c2nc(N(C)C)[nH]c(=O)c12` (stereo not shown) [Example 270, 6-(Dimethylamino)-3-methyl-1-{1-[4-(trifluoromethyl)phenyl]ethyl}-1,5-dihydro-4H-pyrazolo[3,4-d]pyrimidin-4-one], the values for the Ki on Rhesus PDE2A3 (setting [2]) and at human PDE2A1 (setting [4]) were 6 nM and 3.9 nM, respectively.

On to `C[C@@H](c1ccc(C(F)(F)F)cc1)n1nc(CCO)c2c(=O)[nH]c(O)nc21` [Example 293, (S)-6-Hydroxy-3-(2-hydroxyethyl)-1-(1-(4-(trifluoromethyl)phenyl)ethyl)-1H-pyrazolo[3,4-d]pyrimidin-4(5H)-one], for which the figures for the Ki at Rhesus PDE2A3 (setting [3]) and on human PDE2A1 (setting [5]) were 12 nM and 10 nM, respectively.

On to `C[C@@H](c1ccc(C(F)(F)F)cc1)n1nc(CC#N)c2c(=O)[nH]c(O)nc21` [Example 298, (S)-2-(6-Hydroxy-4-oxo-1-(1-(4-(trifluoromethyl)phenyl)ethyl)-4,5-dihydro-1H-pyrazolo[3,4-d]pyrimidin-3-yl)acetonitrile], for which the Ki worked out at 5 nM at Rhesus PDE2A3 (setting [3]) and 4.7 nM on human PDE2A1 (setting [5]).

Take `COCc1nn([C@@H](C)c2ccc(C(F)(F)F)cc2)c2nc(O)[nH]c(=O)c12` [Example 304, (S)-6-Hydroxy-3-(methoxymethyl)-1-(1-(4-(trifluoromethyl)phenyl)ethyl)-1,5-dihydro-4H-pyrazolo[3,4-d]pyrimidin-4-one]: the inhibition constant (Ki) on Rhesus PDE2A3 (setting [3]) came to 43 nM; at human PDE2A1 (setting [5]), 46 nM.
